Test: Fluorescein release from hydrogels in phosphate buffer, monitored by HPLC
Type: physicochemical
Conditions: covalently grafted in PEG hydrogel, plateau after 72 hours
Text: FIG. 2: this figure concerns tests to quantify the release of fluorescein from various hydrogels according to the invention. The hydrogels grafted with fluorescein by covalent bond show much lower release rates than the hydrogel containing fluorescein simply enclosed with no covalent bond.
In order to show the covalent incorporation of a (bio)molecule into the gel and the absence of release over time of the grafted molecules, fluorescein derivatives were selected to be chemically linked to the hydrogels in accordance with the present invention (see FIG. 2 for the exact formulae). Thus, if there were to be a release of the grafted molecules, the use of fluorescein would make it possible to easily detect it.
Fluorescein isothiocyanate (FITC) was used to prepare two types of fluorescein derivatives giving covalent bonds (triethoxysilane and dimethylhydroxysilane), as well as a non-silylated molecule used as control. Each fluorescein derivative was dissolved at a concentration of 5.2 mM in a solution of bi-silylated hybrid PEG, itself at a concentration of 10% by mass relative to the mass of DPBS used as solvent. Sodium fluoride was added, and the solutions were homogenized. Fluorescent hybrid hydrogels were obtained at 37° C. in 30 minutes. The various hydrogels were placed in phosphate buffer (10 mL) and fluorescein release was monitored by HPLC. […]

C[Si](C)(O)CCCNC(=O)NCCCNC(=S)Nc1ccc(-c2c3ccc(=O)cc-3oc3cc(O)ccc23)c(C(=O)O)c1 [dimethythydroxyfluorescein, Hydroxydimethylsilyl Fluorescein]
maximum release (relative to the total amount of fluorescein introduced): 20%

From patent US20210393855A1, “NEW HYDROGELS HAVING A SILYLATED STRUCTURE, AND METHOD FOR OBTAINING SAME” (Universite de Montpellier, priority 2015, published 2021)
